Measurements as given in ChEMBL document CHEMBL1138442, “Structural insight into the inhibition of human kynurenine aminotransferase I/glutamine transaminase K” (J Med Chem, 2009).
pIC50: −log10 of the molar value. Calls of active or inactive are those of the source. The rule behind the calls is not given here.

What was measured:
[1] = molecular target: T1, Kynurenine--oxoglutarate transaminase 1 (Homo sapiens) (UniProt Q16773); assay: Inhibition of human recombinant KAT1 expressed in Sf9 cells assessed as decrease in enzyme activity at 25 % ligand concentration; design: scale not given: the % may be the effect or the level left
T1 sequence (whole entry): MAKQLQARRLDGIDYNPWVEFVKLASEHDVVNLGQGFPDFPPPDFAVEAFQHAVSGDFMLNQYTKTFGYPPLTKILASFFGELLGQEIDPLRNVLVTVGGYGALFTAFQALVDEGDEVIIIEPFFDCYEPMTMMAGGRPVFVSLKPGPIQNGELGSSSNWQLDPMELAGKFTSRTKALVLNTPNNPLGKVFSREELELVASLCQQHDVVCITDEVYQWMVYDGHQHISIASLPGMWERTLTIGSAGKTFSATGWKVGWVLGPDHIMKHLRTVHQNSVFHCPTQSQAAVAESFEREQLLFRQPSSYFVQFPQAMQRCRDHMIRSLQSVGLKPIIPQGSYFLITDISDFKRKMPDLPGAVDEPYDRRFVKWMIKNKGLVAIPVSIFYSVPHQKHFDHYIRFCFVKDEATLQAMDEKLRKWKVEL

[2] = molecular target: T1, Kynurenine--oxoglutarate transaminase 1 (Homo sapiens); assay: (§1) Inhibition of human recombinant KAT1 expressed in Sf9 cells
[3] = molecular target: T2, Kynurenine--oxoglutarate transaminase 1 (Homo sapiens, UniProt Q16773); assay: as §1
T2 sequence (Q16773 whole entry): T1 sequence (whole entry)

Compound | Activity [2] | further results
OCC(O)CO |  | Activity [1]: 10%
O=C(O)C(=O)Cc1c[nH]c2ccccc12 | Active | 
O=C(O)/C=C/c1c[nH]c2ccccc12 | Active | 
O=C(O)CCc1c[nH]c2ccccc12 [INDOLYLPROPIONIC ACID] |  | pIC50 [3]: 3.85
N[C@@H](Cc1c[nH]c2ccccc12)C(=O)O | Active | 
O=C(O)Cc1c[nH]c2ccccc12 | Active | 
O=C(O)C(O)Cc1c[nH]c2ccccc12 (racemic) |  | pIC50 [3]: 3.66
